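All cell lines were grown in 96-well plates and treated with compound for 48 hours. GI50 is the concentration that inhibits growth by half.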 The source made the active and inactive calls. Cut-off read from the data, not from the text of the source: active = GI50 up to about 1.1 µM and inactive = higher.
Columns and labels:
Experiment in all cases: DTP human tumour cell line panel, 48 h
786-0 = tested on: 786-0
MOLT-4 = tested on: MOLT-4
NCI-H460 = tested on: NCI-H460
SF-268 = tested on: SF-268
M14 = tested on: M14
T47D = tested on: T47D
HOP-92 = tested on: HOP-92
OVCAR-5 = tested on: OVCAR-5
HT-29 = tested on: HT-29
IGROV-1 = tested on: IGROV-1
K562 = tested on: K562
UO-31 = tested on: UO-31
SNB-19 = tested on: SNB-19
CAKI-1 = tested on: CAKI-1
OVCAR-3 = tested on: OVCAR-3
SNB-75 = tested on: SNB-75
HCC 2998 = tested on: HCC 2998
SF-539 = tested on: SF-539
MCF7 = tested on: MCF7
UACC-62 = tested on: UACC-62

Measured: GI50

CC(C)(C)c1c2c(c(C(C)(C)C)c3c1OCN(Cc1ccccc1)C3)OCN(Cc1ccccc1)C2
inactive: 786-0 12.9 µM | MOLT-4 18.2 µM | NCI-H460 15.1 µM | SF-268 16.2 µM | M14 14.2 µM | T47D 31.7 µM | HOP-92 12 µM | OVCAR-5 13.4 µM | HT-29 16.7 µM | IGROV-1 21 µM | K562 17.6 µM | UO-31 17.2 µM | SNB-19 11 µM | CAKI-1 33.2 µM | OVCAR-3 14 µM | SNB-75 37.2 µM | HCC 2998 10.5 µM | SF-539 16 µM | MCF7 11 µM | UACC-62 17.7 µM

O/N=C1\CC2(N3CCOCC3)CCC1(c1ccccc1)CC2
inactive: 786-0 > 100 µM | MOLT-4 > 100 µM | NCI-H460 > 100 µM | SF-268 > 100 µM | M14 > 100 µM | T47D > 100 µM | HOP-92 > 100 µM | OVCAR-5 > 100 µM | HT-29 > 100 µM | IGROV-1 > 100 µM | K562 > 100 µM | UO-31 > 100 µM | SNB-19 > 100 µM | CAKI-1 > 100 µM | OVCAR-3 > 100 µM | SNB-75 > 100 µM | HCC 2998 > 100 µM | SF-539 > 100 µM | MCF7 > 100 µM | UACC-62 > 100 µM

CN1C(=O)c2ccc3ccccc3c2C1=O
inactive: 786-0 > 100 µM | MOLT-4 > 100 µM | NCI-H460 > 100 µM | SF-268 > 100 µM | M14 > 100 µM | T47D 63.5 µM | HOP-92 98.6 µM | OVCAR-5 > 100 µM | HT-29 > 100 µM | IGROV-1 > 100 µM | K562 > 100 µM | UO-31 > 100 µM | SNB-19 > 100 µM | CAKI-1 > 100 µM | OVCAR-3 > 100 µM | SNB-75 27.9 µM | HCC 2998 > 100 µM | SF-539 > 100 µM | MCF7 > 100 µM | UACC-62 > 100 µM

O=C([O-])C(O)C(O)C(O)C(O)C(=O)O.[K+] (stereo not given)
inactive: 786-0 > 100 µM | MOLT-4 > 100 µM | NCI-H460 > 100 µM | SF-268 > 100 µM | M14 > 100 µM | T47D > 100 µM | HOP-92 > 100 µM | OVCAR-5 > 100 µM | HT-29 > 100 µM | IGROV-1 > 100 µM | K562 > 100 µM | UO-31 > 100 µM | SNB-19 > 100 µM | CAKI-1 > 100 µM | OVCAR-3 > 100 µM | SNB-75 > 100 µM | HCC 2998 > 100 µM | SF-539 > 100 µM | MCF7 > 100 µM | UACC-62 > 100 µM

COc1nc2c(c(=O)n1C)N(C(C)=O)C1C(N2)OCC(OC(C)=O)C1OC(C)=O (stereo not given)
inactive: 786-0 > 10 µM | MOLT-4 > 10 µM | NCI-H460 > 10 µM | SF-268 > 10 µM | M14 > 10 µM | T47D > 10 µM | HOP-92 > 10 µM | OVCAR-5 > 10 µM | HT-29 > 10 µM | IGROV-1 > 10 µM | K562 > 10 µM | UO-31 > 10 µM | SNB-19 > 10 µM | CAKI-1 > 10 µM | OVCAR-3 > 10 µM | SNB-75 > 10 µM | HCC 2998 > 10 µM | SF-539 > 10 µM | MCF7 > 10 µM | UACC-62 > 10 µM
